This note sets out measurements from ChEMBL document CHEMBL1151325, “New xenia diterpenes isolated from the soft coral, xenia florida” (J Nat Prod, 1998).

For one assay, the system named is Aeromonas salmonicida. Put plainly: Antibacterial activity against Aeromonas salmonicida at 100 ug/disk by paper disk method. Type of assay: functional, organism-based.
The test system of the next assay is Staphylococcus aureus. Put plainly: Antibacterial activity against Staphylococcus aureus at 100 ug/disk by paper disk method. The assay is classed as functional, organism-based.

Active and inactive are the calls of the source. No cut-off for these calls is given here.

Take `CC(C)/C=C/C=C1/COC(=O)[C@@H]2[C@@H]1CC[C@@]1(C)C[C@]2(O)CC[C@@H]1O`: the outcome with Aeromonas salmonicida and with Staphylococcus aureus was Active.

`C=C1CC[C@@H]2O[C@@]2(C)CC[C@@H]2/C(=C\C=C\C(C)C)COC(=O)[C@@H]12`: the outcome with Aeromonas salmonicida and in the assay with Staphylococcus aureus was Active.
